Results: patent US20230295096A1, “PYRAZOLE CARBOXAMIDE COMPOUNDS FOR TREATMENT OF HBV” (ASSEMBLY BIOSCIENCES, INC., priority 2020, published 2023)
Like-named read-outs stand apart in the source and are kept apart here.

System: HBV
Assay: Viral load production from HepAD38 cells, qPCR of the HBV core sequence in supernatant
Assay type: cell-based
Conditions: Table 1 ranges
Summary of the method: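 EC50 and CC50 come from four-parameter logistic fits of supernatant HBV core DNA (TaqMan qPCR, DNA standards, compared with DMSO wells) and of CellTiter-Glo luminescence.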

[1] = Hepatitis B virus, HePAD38, 120 h, HepAD38 cells, 5 days, HBV DNA in supernatant by qPCR, read-out: Activity (viral load lowering EC50)

| SMILES | EC50 [1] [nM] | other results |
| --- | --- | --- |
| Cc1ccc(S(=O)(=O)CC2(O)CC3CC(c4nn(C)c(N)c4C(=O)Nc4ccc(F)c(Cl)c4)CC3C2)cn1 (stereo not shown) [Example 162] | < 10 | – |
| Cn1cc(C(F)(F)F)nc1C1(O)CC2CC(c3nn(C)c(N)c3C(=O)Nc3ccc(F)c(Cl)c3)CC2C1 (stereo not shown) [Example 163] | 10 to 50 | – |
| Cn1nc(C2CC3CC(O)(Cc4ccccn4)CC3C2)c(C(=O)Nc2ccc(F)c(Cl)c2)c1N (stereo not shown) [Example 164] | 10 to 50 | – |
| Cn1nc(C2CC3CC(O)(c4cc(Br)ncc4F)CC3C2)c(C(=O)Nc2ccc(F)c(Cl)c2)c1N (stereo not shown) [Example 166] | 10 to 50 | – |
| Cn1nc(C2CC3CC(O)(c4ncc(C(F)(F)F)n4C)CC3C2)c(C(=O)Nc2ccc(F)c(Cl)c2)c1N (stereo not shown) [Example 167] | 10 to 50 | – |
| Cn1nc(C2CC3CC(O)(c4ccc(F)cn4)CC3C2)c(C(=O)Nc2ccc(F)c(Cl)c2)c1N (stereo not shown) [Example 168] | < 10 | – |
| Cn1nc(C2CC3CC(O)(c4ccncc4F)CC3C2)c(C(=O)Nc2ccc(F)c(Cl)c2)c1N (stereo not shown) [Example 169] | < 10 | – |
| Cn1nc(C2CC3CC(O)(c4c[nH]nn4)CC3C2)c(C(=O)Nc2ccc(F)c(Cl)c2)c1N (stereo not shown) [Example 170] | < 10 | – |
| Cn1nc(C2CC3CC(O)(c4nn[nH]n4)CC3C2)c(C(=O)Nc2ccc(F)c(Cl)c2)c1N (stereo not shown) [Example 171] | > 500 | – |
| Cn1nnnc1C1(O)CC2CC(c3nn(C)c(N)c3C(=O)Nc3ccc(F)c(Cl)c3)CC2C1 (stereo not shown) [Example 172] | 10 to 50 | – |
| Cn1nc(C2CC3CC(O)(c4cn[nH]n4)CC3C2)c(C(=O)Nc2ccc(F)c(Cl)c2)c1N (stereo not shown) [Example 173] | 10 to 50 | – |
| Cn1nc(C2CC3CC(O)(c4c(F)cncc4F)CC3C2)c(C(=O)Nc2ccc(F)c(Cl)c2)c1N (stereo not shown) [Example 174] | < 10 | – |
| Cn1nc(C2CC3CC(O)(c4ncccn4)CC3C2)c(C(=O)Nc2ccc(F)c(Cl)c2)c1N (stereo not shown) [Example 175] | < 10 | – |
| Cc1nnc(C2(O)CC3CC(c4nn(C)c(N)c4C(=O)Nc4ccc(F)c(Cl)c4)CC3C2)o1 (stereo not shown) [Example 176] | 10 to 50 | – |
| Cc1nc(C2(O)CC3CC(c4nn(C)c(N)c4C(=O)Nc4ccc(F)c(Cl)c4)CC3C2)no1 (stereo not shown) [Example 177] | < 10 | – |
| Cn1nc(C2CC3CC(O)(c4cc[nH]n4)CC3C2)c(C(=O)Nc2ccc(F)c(Cl)c2)c1N (stereo not shown) [Example 178] | < 10 | – |
| Cc1noc(C2(O)CC3CC(c4nn(C)c(N)c4C(=O)Nc4ccc(F)c(Cl)c4)CC3C2)n1 (stereo not shown) [Example 179] | < 10 | – |
| Cc1cc(C2(O)CC3CC(c4nn(C)c(N)c4C(=O)Nc4ccc(F)c(Cl)c4)CC3C2)on1 (stereo not shown) [Example 180] | < 10 | – |
| Cn1nc(C2CC3CC(O)(Cc4ncco4)CC3C2)c(C(=O)Nc2ccc(F)c(Cl)c2)c1N (stereo not shown) [Example 181] | < 10 | – |
| Cn1nc(C2CC3CC(N)(CS(C)(=O)=O)CC3C2)c(C(=O)Nc2ccc(F)c(Cl)c2)c1N (stereo not shown) [Example 182] | > 500 | – |
| Cc1coc(C2(O)CC3CC(c4nn(C)c(N)c4C(=O)Nc4ccc(F)c(Cl)c4)CC3C2)n1 (stereo not shown) [Example 183] | < 10 | – |
| Cc1cnc(C2(O)CC3CC(c4nn(C)c(N)c4C(=O)Nc4ccc(F)c(Cl)c4)CC3C2)o1 (stereo not shown) [Example 184] | < 10 | – |

| SMILES | EC50 [1] [nM] | other results |
| --- | --- | --- |
| Cn1nc(C2CC3CC(N4CCC(F)(C(N)=O)CC4)CC3C2)c(C(=O)Nc2ccc(F)c(Cl)c2)c1N (stereo not shown) [Example 185] | 10 to 50 | – |
| COC(=O)C1=CCN(C2CC3CC(c4nn(C)c(N)c4C(=O)Nc4ccc(F)c(Cl)c4)CC3C2)CC1 (stereo not shown) [Example 186] | 50 to 500 | – |
| Cn1nc(C2CC3CC(N4CCC(C(N)=O)CC4)CC3C2)c(C(=O)Nc2ccc(F)c(Cl)c2)c1N (stereo not shown) [Example 187] | 50 to 500 | – |
| Cn1nc(C2CC3CC(N4CC=C(C(=O)O)CC4)CC3C2)c(C(=O)Nc2ccc(F)c(Cl)c2)c1N (stereo not shown) [Example 188] | > 500 | – |
| Cn1nc(C2CC3CC(N4CC=C(C(N)=O)CC4)CC3C2)c(C(=O)Nc2ccc(F)c(Cl)c2)c1N (stereo not shown) [Example 189] | 10 to 50 | – |
| Cn1nc(C2CC3CC(O)(c4cccnn4)CC3C2)c(C(=O)Nc2ccc(F)c(Cl)c2)c1N (stereo not shown) [Example 190] | < 10 | – |
| Cn1nc(C2CC3CC(O)(c4cnccn4)CC3C2)c(C(=O)Nc2ccc(F)c(Cl)c2)c1N (stereo not shown) [Example 191] | < 10 | – |
| CSc1nccc(C2(O)CC3CC(c4nn(C)c(N)c4C(=O)Nc4ccc(F)c(Cl)c4)CC3C2)n1 (stereo not shown) [Example 192] | 10 to 50 | – |
| Cn1ncnc1C1(O)CC2CC(c3nn(C)c(N)c3C(=O)Nc3ccc(F)c(Cl)c3)CC2C1 (stereo not shown) [Example 193] | < 10 | – |
| Cn1nc(Br)c(C2(O)CC3CC(c4nn(C)c(N)c4C(=O)Nc4ccc(F)c(Cl)c4)CC3C2)n1 (stereo not shown) [Example 194] | < 10 | – |
| Cn1ncc(C2(O)CC3CC(c4nn(C)c(N)c4C(=O)Nc4ccc(F)c(Cl)c4)CC3C2)n1 (stereo not shown) [Example 195] | < 10 | – |
| CCn1nccc1C1(O)CC2CC(c3nn(C)c(N)c3C(=O)Nc3ccc(F)c(Cl)c3)CC2C1 (stereo not shown) [Example 196] | < 10 | – |
| Cn1nc(C2CC3C=C(c4ccn[nH]4)CC3C2)c(C(=O)Nc2ccc(F)c(Cl)c2)c1N (stereo not shown) [Example 197] | < 10 | – |
| C=C(n1cccn1)C1(O)CC2CC(c3nn(C)c(N)c3C(=O)Nc3ccc(F)c(Cl)c3)CC2C1 (stereo not shown) [Example 198] | < 10 | – |
| CC(n1cccn1)C1(O)CC2CC(c3nn(C)c(N)c3C(=O)Nc3ccc(F)c(Cl)c3)CC2C1 (stereo not shown) [Example 199] | < 10 | – |
| CC(C)n1nccc1C1(O)CC2CC(c3nn(C)c(N)c3C(=O)Nc3ccc(F)c(Cl)c3)CC2C1 (stereo not shown) [Example 200] | < 10 | – |
| Cn1nc(C2CC3CC(O)(CNc4ncc(F)cn4)CC3C2)c(C(=O)Nc2ccc(F)c(Cl)c2)c1N (stereo not shown) [Example 201] | < 10 | – |
| CC(C)n1nc([N+](=O)[O-])cc1C1(O)CC2CC(c3nn(C)c(N)c3C(=O)Nc3ccc(F)c(Cl)c3)CC2C1 (stereo not shown) [Example 206] | < 10 | – |
| Cn1nc(C(F)(F)F)c(C2(O)CC3CC(c4nn(C)c(N)c4C(=O)Nc4ccc(F)c(Cl)c4)CC3C2)n1 (stereo not shown) [Example 207] | < 10 | – |
| Cn1nc(C2CC3CC(O)(c4c(Cl)cnn4C)CC3C2)c(C(=O)Nc2ccc(F)c(Cl)c2)c1N (stereo not shown) [Example 208] | < 10 | – |
| Cn1nc(C2CC3CC(O)(c4c(F)cnn4C)CC3C2)c(C(=O)Nc2ccc(F)c(Cl)c2)c1N (stereo not shown) [Example 209] | < 10 | – |
| CCn1nc(N)cc1C1(O)CC2CC(c3nn(C)c(N)c3C(=O)Nc3ccc(F)c(Cl)c3)CC2C1 (stereo not shown) [Example 210] | < 10 | – |

| SMILES | EC50 [1] [nM] | other results |
| --- | --- | --- |
| CC(C)n1nc(N)cc1C1(O)CC2CC(c3nn(C)c(N)c3C(=O)Nc3ccc(F)c(Cl)c3)CC2C1 (stereo not shown) [Example 211] | < 10 | – |
| Cn1nc(C2CC3CC(O)(c4n[nH]cc4C(F)(F)F)CC3C2)c(C(=O)Nc2ccc(F)c(Cl)c2)c1N (stereo not shown) [Example 212] | < 10 | – |
| Cn1nc(C2CC3CC(O)(CNc4ncc(F)cn4)CC3C2)c(C(=O)Nc2ccc(F)c(Cl)c2)c1N (stereo not shown) [Example 213] | – | EC50 (HepAD38 cells, 5 days, HBV DNA in supernatant by qPCR, read-out: Activity (viral load lowering EC50)): 10 to 50 nM |
| CCn1nc(N)cc1C1=CC2CC(c3nn(C)c(N)c3C(=O)Nc3ccc(F)c(Cl)c3)CC2C1 (stereo not shown) [Example 214] | < 10 | – |
| Cn1nc(C2CC3CC(O)(c4cc(N)nn4C4CC4)CC3C2)c(C(=O)Nc2ccc(F)c(Cl)c2)c1N (stereo not shown) [Example 215] | < 10 | – |
| Cn1nc(C2CC3C=C(c4cc(N)nn4C4CC4)CC3C2)c(C(=O)Nc2ccc(F)c(Cl)c2)c1N (stereo not shown) [Example 216] | 10 to 50 | – |
| Cc1cc(C2(O)CC3CC(c4nn(C)c(N)c4C(=O)Nc4ccc(F)c(Cl)c4)CC3C2)n(C)n1 (stereo not shown) [Example 217] | < 10 | – |
| Cn1nc(C2CC3CC(O)(c4cc([N+](=O)[O-])nn4C4CC4)CC3C2)c(C(=O)Nc2ccc(F)c(Cl)c2)c1N (stereo not shown) [Example 218] | < 10 | – |
| Cn1cc(C(F)(F)F)c(C2(O)CC3CC(c4nn(C)c(N)c4C(=O)Nc4ccc(F)c(Cl)c4)CC3C2)n1 (stereo not shown) [Example 219] | < 10 | – |
| Cn1cc(C2(O)CC3CC(c4nn(C)c(N)c4C(=O)Nc4ccc(F)c(Cl)c4)CC3C2)c(C(F)(F)F)n1 (stereo not shown) [Example 220] | < 10 | – |
| Cn1nc(C2CC3CC(O)(c4c(Cl)c(N)nn4C)CC3C2)c(C(=O)Nc2ccc(F)c(Cl)c2)c1N (stereo not shown) [Example 221] | < 10 | – |
| Cn1nc(C2CC3CC(O)(c4c[nH]nc4C(F)(F)F)CC3C2)c(C(=O)Nc2ccc(F)c(C#N)c2)c1N (stereo not shown) [Example 222] | < 10 | – |
| Cn1nc(C2CC3CC(O)(c4cc(C(F)(F)F)n[nH]4)CC3C2)c(C(=O)Nc2ccc(F)c(Cl)c2)c1N (stereo not shown) [Example 223] | < 10 | – |
| Cn1nc(C2CC3CC(O)(c4[nH]nc(C(F)(F)F)c4Br)CC3C2)c(C(=O)Nc2ccc(F)c(Cl)c2)c1N (stereo not shown) [Example 224] | 10 to 50 | – |
| COC(=O)CCC(=O)OCn1cc(C2(O)CC3CC(c4nn(C)c(N)c4C(=O)Nc4ccc(F)c(Cl)c4)CC3C2)c(C(F)(F)F)n1 (stereo not shown) [Example 226] | < 10 | – |
| COCCOCCOCCOCCOCCOCCOC(=O)OCn1cc(C2(O)CC3CC(c4nn(C)c(N)c4C(=O)Nc4ccc(F)c(Cl)c4)CC3C2)c(C(F)(F)F)n1 (stereo not shown) [Example 228] | < 10 | – |
| COCCOCCOCCOCCOCCOCCOCCOC(=O)OCn1cc(C2(O)CC3CC(c4nn(C)c(N)c4C(=O)Nc4ccc(F)c(Cl)c4)CC3C2)c(C(F)(F)F)n1 (stereo not shown) [Example 229] | < 10 | – |
| Cn1nc(C2CC3CC(O)(c4cn(COC(=O)CCC(=O)OCc5ccccc5)nc4C(F)(F)F)CC3C2)c(C(=O)Nc2ccc(F)c(Cl)c2)c1N (stereo not shown) [Example 230] | < 10 | – |
| Cn1nc(C2CC3CC(Oc4ncccn4)CC3C2)c(C(=O)Nc2ccc(F)c(Cl)c2)c1N (stereo not shown) [Example 231] | 10 to 50 | – |
| Cn1nc(C2CC3CC(O)(Cc4ccc(S(C)(=O)=O)cn4)CC3C2)c(C(=O)Nc2ccc(F)c(Cl)c2)c1N (stereo not shown) [Exmaple 165] | – | EC50 (Hepatitis B virus, HePAD38, 120 h, read-out: Activity (viral load lowering EC50), HepAD38 cells, 5 days, HBV DNA in supernatant by qPCR): < 10 nM |
